From patent US11021472B2, “Use of compounds comprising two or more hydrophobic domains and a hydrophilic domain comprising PEG moieties for stabilization of a cell” (Roche Diagnostics Operations, Inc., priority 2013, dated 2021)
Where “and” joins values, the source holds several entries; their conditions need not be identical. Equal entries are not always repeated. Where two headings read alike, the source gives them in different places.

Assays:
WBC [1] = assay: WBC recovery rate after centrifugation (stabilization of cells); assay type: cell-based, human; conditions: for performance in WBC recovery rate after centrifugation (ranking): Centrifugation 20 min, 10 min, 1 h; for WBC recovery rate after centrifugation: dependence on molecule concentration: Centrifugation 10 min
Method: (§1) Centrifugation characteristics: 10 min, 300×g.
as §1
The respective left, middle and right columns per assay represent different Experimenters 1, 2 and 3. […] Centrifugation characteristics: 10 min, 300×g. Molecule: Cholesteryl-TEG-Cholesteryl-TEG-(SpacerC18)7-Fluos-Biotin-TEG.
(§2) Following molecules were tested: 1234: 5′-(Cholesteryl-TEG)2-Spacer C18-dT-Biotin-TEG-3′; 1248: 3′-(Cholesteryl-TEG)2-PEG2000-Fluos-Biotin-TEG-5′ INVERS; 1254: 3′-(Cholesteryl-TEG)2-SpacerC18-Fluos-Biotin-TEG-5′ INVERS; 1255: 3′-(Myristic acid)2-PEG2000-dT-Biotin-TEG-5′ INVERS. […] Centrifugation characteristics: 20 min, 300×g. Respective left column: 10 min incubation with molecule. Respective middle column: 1 h min incubation with molecule. Respective right column: 2 h incubation with molecule.
Following molecules were tested: 1255: 3′-(Myristic acid)2-PEG2000-dT-Biotin-TEG-5′ INVERS; 1234: 5′-(Cholesteryl-TEG)2-Spacer C18-dT-Biotin-TEG-3′; 1248: 3′-(Cholesteryl-TEG)2-PEG2000-Fluos-Biotin-TEG-5′ INVERS; 1254: 3′-(Cholesteryl-TEG)2-SpacerC18-Fluos-Biotin-TEG-5′ INVERS. […] Centrifugation characteristics: 20 min, 500×g. Respective left column: 10 min incubation with molecule. Respective middle column: 1 h min incubation with molecule. Respective right column: 3 h incubation with molecule.
as §2, with “tested: 1255: 3′-(Myristic acid)2-PEG2000-dT-Biotin-TEG-5′ INVERS;” for “tested:”, “3′-(Cholesteryl-TEG)2-SpacerC18-Fluos-Biotin-TEG-5′” for “3′-(Cholesteryl-TEG)2-SpacerC18-Fluos-Biotin-TEG-5′ INVERS; 1255: 3′-(Myristic acid)2-PEG2000-dT-Biotin-TEG-5′”, “1000×g.” for “300×g.”
Stabilization is typically determined on a population of cells, e.g. 2, 10, 100 or more cells, and the respective mean viability of the cell populations are compared. […] Viability may be determined by determining cell morphology, cell viability and/or cell recovery. Methods for determining cell morphology, cell viability and cell recovery are known in the art. […] For determining cell morphology, visual inspection by microscopy may be performed. For determining cell viability, a cell viability test using WST-1 proliferation kit (RAS) may be performed.

white blood cells (WBCs) = conditions: 300,000 WBCs/well
Method: In particular, the performance of a single cholesterol-molecule and different dual-linker molecules (i.e. containing two hydrophobic moieties) was tested. In detail, immobilization of white blood cells (WBCs) on a Streptavidin-coated surface using different linker molecules was tested on a 12-well plate: 300,000 WBCs/well. This was followed by the measurement of the cell recovery rate after immobilization and washing of the cells using the Cellavista instrument (10×Nuclei Operator s9s5).

WBC [2] = tested on: WBC
Method: 4× determination. Row A: 200 μl PBS introduced, 1 nmol of compound added thereto respectively, mixed, incubated about 30 min, washed 2×PBS, 800 μl PBS introduced, 300.000 WBC (untreated) added. Row B: 800 μl PBS introduced, 300.000 WBC (untreated) added. Row C: 10×10^6 WBC in 1 ml with 10 nmol compound of invention 10 min incubated, 800 μl PBS/Well introduced, 300.000 treated WBC respectively. The first MTP plate washed after 30 min 2× with PBS, overlayed with Höchst and incubated for 15 min.>Cellavista (Operator s9s5) measured. The second plate was measured after 90 min. The third plate was measured after 150 min.
The experiments were performed for different incubation times, as shown below:
As starting material 5′-(Cholesteryl-TEG)2-PEG2000-Fluos-Biotin_TEG-3′ INVERS (14530 pmol/μl) (Internal Reference No.: 29.891250), and a streptavidin treated MTP (Microcoat), 12 Well plate were used.
Erythrocyte lysis was performed as follows:
EDTA-whole blood 59.423 6.400 WBC/μl (Ambulanz Roche)
lysis buffer: 100 mM NH4Cl+5 mM Hepes+0.5 mM KHCO3+0.1 mM EDTA-K
Ca 1×8 ml whole blood filled in 50 ml Falcon tube with lysis buffer, incubate at room temperature for 10 min
15 min at 250 g centrifugated, pellet resuspended by pipetting in and out in lysis buffer; filled to 50 ml with lysis buffer
15 min 250 g centrifugated, pellet resuspended with PBS, filled to 50 ml with PBS, 15 min 250 g centrifugated, filled to 50 ml with PBS
The design of the experiment on the plate is explained below (see FIG. 2):
Row A: 200 μl PBS introduced, 1 nmol of compound added thereto respectively, mixed, incubated about 30 min, washed 2× PBS, • 800 μl PBS introduced, 300.000 WBC (untreated) added.
Row B: 800 μl PBS introduced, 300.000 WBC (untreated) added.

Epithelial cells = assay: Labelling (staining) of cells with labelled molecules; assay type: cell-based
Excerpt: (§3) As shown in the examples, a compound for use according to the invention, wherein the compound comprises a label moiety, is contacted with a cell. As labelling is preferably done with viable or potentially viable cells, the cells are typically present in an aqueous solution, which is preferably buffered and/or contains nutrients, e.g. the cells are suspended in PBS. The labeled compound for use according to the invention may be added to the cells, e.g. in form of a solution, e.g. as aqueous solution by methods known in the art, as pipetting.

MDA-MB468 = assay: as above; assay type: cell-based
Excerpt: as §3

U937 = assay: as above; assay type: cell-based
Excerpt: as §3

WBCs [3] = assay: as above; assay type: cell-based
Excerpt: as §3

WBCs [4] = assay: Recovery rate of cells after immobilization on streptavidin (SA) plate; assay type: cell-based; conditions: for Remarks (staining): staining of the cells by the molecule
Method: X=hydrophobic moiety, […]=fluorescein In the following experiment, the recovery rate of cells was determined.

[5] = 300×g, 2 h incubation with molecule
[6] = 500×g, 3 h incubation with molecule
[7] = Sample 1, compound concentration: 1 nmol/10e6 WBCs
[8] = Sample 1, first table, concentration not given
[9] = Sample 2, Compound Concentration: 100 pmol/10e6 WBCs
[10] = Sample 2, Compound Concentration: 1 nmol/10e6 WBCs

Compound: 3′-(Myristic acid)2-PEG2000-dT-Biotin-TEG-5′ INVERS [compound 1255]
- performance in WBC recovery rate after centrifugation (ranking) (WBC [1]; [5]): followed by compound 1255 and 1254
- performance in WBC recovery rate after centrifugation (ranking) (WBC [1]; [6]): followed by molecule 1255 and 1254

Compound: 5′-(Cholesterol-TEG)1-Doubler-dT-Biotin-3′ [29.891272]
- cell count per well (white blood cells (WBCs); [7]): 199973 and 220701 and 228481
- cell count per well (white blood cells (WBCs); [8]): 147132 and 179643 and 181620
- Mean (cell count) (white blood cells (WBCs); [9]): 186316.33
- cell count per well (white blood cells (WBCs); [9]): 161504 and 201424 and 196021
- Mean (cell count) (white blood cells (WBCs); [10]): 247418.33
- cell count per well (white blood cells (WBCs); [10]): 241232 and 254894 and 246129

Compound: 5′-(Cholesteryl-TEG)2-PEG2000-Fluos-Biotin_TEG-3′ INVERS [29.891250]
- MW (mean WBC count; target: 300.000 WBC) (WBC [2]; 30 min, WBC treated): 231829.75
- WBC recovery rate [%] (Mean %) (WBC [2]; 30 min, WBC treated: molecule + cells): 77.28%
- MW (mean WBC count; target: 300.000 WBC) (WBC [2]; 30 min, Well treated): 64909
- WBC recovery rate [%] (Mean %) (WBC [2]; 30 min, well treated: molecule bound to surface): 21.64%
- MW (mean WBC count; target: 300.000 WBC) (WBC [2]; 90 min, WBC treated): 249346.25
- WBC recovery rate [%] (Mean %) (WBC [2]; 90 min, WBC treated: molecule + cells, listed as molecule useful in methods of invention): 83.12% and 83.1%
- MW (mean WBC count; target: 300.000 WBC) (WBC [2]; 90 min, Well treated): 142865
- WBC recovery rate [%] (Mean %) (WBC [2]; 90 min, well treated: molecule bound to surface, listed as molecule useful in methods of invention): 47.62% and 47.6%
- MW (mean WBC count; target: 300.000 WBC) (WBC [2]; 120 min, WBC treated): 258692.75
- WBC recovery rate [%] (Mean %) (WBC [2]; 120 min, WBC treated: molecule + cells): 86.23%
- MW (mean WBC count; target: 300.000 WBC) (WBC [2]; 120 min, Well treated): 171062.75
- WBC recovery rate [%] (Mean %) (WBC [2]; 120 min, well treated: molecule bound to surface): 57.02%

Compound: 5′-(Cholesteryl-TEG)2-Spacer C12-dT-Biotin_TEG-3′ INVERS [29.891253]
- cell count per well (white blood cells (WBCs); [7]): 218861 and 221471 and 208802
- cell count per well (white blood cells (WBCs); [8]): 105061 and 128195 and 139678
- Mean (cell count) (white blood cells (WBCs); [9]): 187757.67
- cell count per well (white blood cells (WBCs); [9]): 178919 and 197130 and 187224
- Mean (cell count) (white blood cells (WBCs); [10]): 237052.33
- cell count per well (white blood cells (WBCs); [10]): 239105 and 240632 and 231420

Compound: 5′-(Cholesteryl-TEG)2-Spacer C18-Fluos-Biotin_TEG-3′ INVERS [29.891254]
- cell count per well (white blood cells (WBCs); [7]): 244649 and 234262 and 260760
- cell count per well (white blood cells (WBCs); [8]): 157660 and 190148 and 170850
- Mean (cell count) (white blood cells (WBCs); [9]): 197067.00
- cell count per well (white blood cells (WBCs); [9]): 205917 and 185100 and 200184
- Mean (cell count) (white blood cells (WBCs); [10]): 245376.00
- cell count per well (white blood cells (WBCs); [10]): 247428 and 244396 and 244304
- performance in WBC recovery rate after centrifugation (ranking) (WBC [1]; [5]): followed by compound 1255 and 1254
- performance in WBC recovery rate after centrifugation (ranking) (WBC [1]; [6]): followed by molecule 1255 and 1254

Compound: 5′-(Cholesteryl-TEG)2-Spacer C18-dT-Biotin-TEG-3′ [compound 1234]
- performance in WBC recovery rate after centrifugation (ranking) (WBC [1]; [5]): best performance
- performance in WBC recovery rate after centrifugation (ranking) (WBC [1]; [6]): best performance

Compound: 5′-Cholesteryl-TEG-PEG2000-Fluos-3′ [BMO 29.891132]
- staining of cells by labelled molecule (Epithelial cells): ✓
- staining of cells by labelled molecule (MDA-MB468): ✓
- staining of cells by labelled molecule (U937): ✓
- staining of cells by labelled molecule (WBCs [3]): ✓ not all

Compound: 5′-CholesterylTEG-CholesterylTEG-(SpacerC18)7-Fluos-BiotinTEG-3′ [BMO 29.891222]
- WBC recovery rate after centrifugation: dependence on molecule concentration (WBC [1]; 300×g): the higher the molecule concentration, the higher the cell recovery rate after centrifugation
- WBC recovery rate after centrifugation: dependence on molecule concentration (WBC [1]; 300×g, listed as A): The higher the molecule concentration, the higher the cell recovery rate after centrifugation
- cell stabilization: dependence on the experimenter (WBC [1]; Experimenters 1, 2 and 3, centrifugation 10 min, 300×g): independent on the experimenter

Compound: 5′-CholesterylTEG-CholesterylTEG-PEG2000-Fluos-BiotinTEG-3′ [BMO 29.891180]
- Remarks (staining) (WBCs [4]): strong

Compound: 5′-Myristic acid-Myristic acid-(SpacerC18)7-Fluos-BiotinTEG-3′ [BMO 29.891214]
- Remarks (staining) (WBCs [4]): strong

Compound: 5′-Myristic acid-Myristic acid-PEG2000-Fluos-BiotinTEG-3′ [BMO 29.891194]
- Remarks (staining) (WBCs [4]): weak and stronger

Compound: 5′-Myristic acid-Myristic acid-SpacerC18-Fluos-BiotinTEG-3′ [BMO 29.891213]
- Remarks (staining) (WBCs [4]): strong

Compound: 5′-Myristic acid-SpacerC9-Myristic acid-PEG2000-Fluos-BiotinTEG-3′ [BMO 29.891197]
- Remarks (staining) (WBCs [4]): weak

Compound: 5′-alphaTocopherolTEG-PEG2000-Fluos-3′ [BMO 29.891131]
- staining of cells by labelled molecule (Epithelial cells): ✓
- staining of cells by labelled molecule (MDA-MB468): ✓
- staining of cells by labelled molecule (U937): ✓
- staining of cells by labelled molecule (WBCs [3]): ✓ not all

Compound: CCCCCCCCCCCCCCCCCCCCCCN1/C(=C/C=C/c2oc3ccccc3[n+]2CCC)Oc2ccccc21.[I-] [PKH2]
- staining of cells by labelled molecule (Epithelial cells): ✓ not all
- staining of cells by labelled molecule (WBCs [3]): ✓

Compound: Biotin-PEG-Lys-(C14)2 [15.260268]
- Recovery Rate (WBCs [4]; 1.77 nmol/10e6 Cells): 85.72%

Compound: Biotin-PEG-Lysin-(C18)2 [HH1749]
- WBC recovery rate after centrifugation: dependence on molecule concentration (WBC [1]; 300×g): The higher the concentration of the molecule, the higher the cell recovery rate after centrifugation

Compound: Biotin-PEG-Lysin-(C18)2 [HH1750]
- WBC recovery rate after centrifugation: dependence on molecule concentration (WBC [1]; 300×g): The higher the concentration of the molecule, the higher the cell recovery rate after centrifugation

Compound: Biotin-PEG-Lysin-(C18)2 [HH1755]
- WBC recovery rate after centrifugation: dependence on molecule concentration (WBC [1]; 300×g): The higher the concentration of the molecule, the higher the cell recovery rate after centrifugation

Compound: Sulfo-JA133-phenylboronic acid [BMO: 15.000078]
- staining of cells by labelled molecule (Epithelial cells): ✓
- staining of cells by labelled molecule (WBCs [3]): ✓ not all
